| melting point | SMILES |
| --- | --- |
| 242 to 245 °C | NC(=O)c1c2ccsc2nc2c1c1ccccc1n2Cc1ccccc1 |
| 88 to 89 °C | CC(C)C(NC(=O)C(F)(F)F)C(=O)O (configuration not stated) |
| 250 to 252 °C | Cc1ccccc1-c1nc2c3ccccc3ccn2c1N=Cc1ccc2ccccc2c1Br |
| 156 to 158 °C | CC(C)(C)C(=O)Nc1n[nH]c(C(C)(C)C)c1Cl |
| 152 to 153 °C | ClCc1ccc2oc(-c3cccs3)nc2c1 |
| 178 to 180 °C | O=C(O)c1cccc(NC(=O)C(CS)Cc2ccccc2)c1 (configuration not stated) |
| 93 to 94 °C | CCCCCCCCCCCC(=O)N[C@H]1CCCNC(=O)C1 |
| 218 to 220 °C | CC(C)(C)c1nc(-c2ccc3ccccc3c2)c(-c2ccncc2)[nH]1 |
| 118 to 120 °C | O=C(Nc1ccc(Cl)nc1)c1ccccc1 |
| 91 to 94 °C | Cn1cc(/C=C/C#N)c2ccccc21 |
| 45 to 47 °C | O=C(NCCCN1CCN(Cc2ccccc2)CC1)Nc1ccccc1 |
| 129 °C | CN(C)Cc1cc(C(=O)c2ccccc2)cc(C(C)(C)C)c1O |
| 155 to 157 °C | CCCCCCCCNC(=O)Nc1ccccc1C(=O)NCC1CCN(C(c2ccccc2)c2ccccc2)CC1 |
| 151 °C | COC(=O)c1cc(C(=O)OC)cc(-c2cc(C(F)(F)F)cc(C(F)(F)F)c2)c1 |
| 172 to 173 °C | O=C(NCC1(c2ccccc2)CCCCC1)Nc1ccc(Br)cc1 |
| 219 to 221 °C | CNc1nc(-c2cccc(NC(=O)c3ccc(OC)cc3)c2)c2cc(OC)c(OC)cc2n1 |
| 254 to 255 °C | Cc1cn(-c2ccc3nc(NC(=O)c4ccc(C(C)(C)C)cc4)cn3n2)c(C)n1 |
| 81 to 83 °C | CCC(O)(c1ccsc1)c1oc(C)nc1C (configuration not stated) |
| 88 to 90 °C | C=C(C)C(=O)OCCN(CCOC(=O)C(=C)C)c1ccc(N=Nc2ccc([N+](=O)[O-])cc2)cc1 |
| 55 to 58 °C | COC(=O)Cc1ccc(OCCNC(=O)C2Cc3ccccc3N2S(=O)(=O)c2ccc(-c3cc(C)ccc3F)cc2)cc1 (configuration not stated) |
| 146 to 147 °C | Cc1cc(N2NCCNC2=O)cc(Cl)c1C(O)c1ccc(Cl)cc1 (configuration not stated) |
| 143 to 145 °C | CCOCc1nc2c(N)nc3ccccc3c2n1NC1CCCCC1 |
| 174 to 176 °C | O=C1C(=O)c2ccccc2C2=C1SCC1(CCN(CC(O)COc3ccccc3)CC1)O2 (configuration not stated) |

| melting point | SMILES |
| --- | --- |
| 262 to 265 °C | CCCn1c(=O)c2c(NC)n[nH]c2n(Cc2ccc(F)cc2)c1=O |
| 184 to 186 °C | Fc1ccc(-c2ccc(CCNc3ncnc4nccnc34)cc2)cn1 |
| 103 to 105 °C | CC=CCn1c(N(C(C)=O)c2cc(C)cc(C)c2)c(C(C)C)c(=O)[nH]c1=O |
| 88 to 90 °C | CCCC(=O)Nc1cccc(N(CCO)CCO)c1 |
| 79 °C | COc1ccc(-n2nc(C(F)(F)F)cc2CO)cc1 |
| 69 to 70 °C | COC(=O)c1c(C)nc(C)c(C(=O)OCC2CCCO2)c1-c1ccccc1[N+](=O)[O-] (configuration not stated) |
| 133 to 135 °C | CCOC(=O)NCCc1cccc(-c2ccnc3c(C#N)cnn23)c1 |
| 149 to 150 °C | N=C(NC(=O)OCc1ccccc1)NC(=O)OCc1ccccc1 |
| 203 to 207 °C | Nc1ccc([N+](=O)[O-])c(NC(=O)c2ccccc2)c1 |
| 254 to 256 °C | CC(C)(O)Cn1c(CO)nc2c(N)nc3cc(-c4ccc(Cl)c(Cl)c4)cnc3c21 |
| 59 to 61 °C | CCOC(=O)CNC(=O)CC(O)CBr (configuration not stated) |
| 201 to 203 °C | O=C(O)COc1ccc(C(=O)c2ccccc2O)c(Cl)c1Cl |
| 131 to 132 °C | N#Cc1ccc(-c2ccc(C=O)cc2)c(OCc2ccccc2)c1 |
| 140 to 141 °C | CCN(CC)C(=O)c1ccc2ccccc2c1-c1ccc(N(C)C)cc1 |
| 83 to 84 °C | OC1COC(c2ccccc2)OC1 (configuration not stated) |
| 178 to 183 °C | COc1cc(C2CCNCC2)ccc1Nc1ncc2ccc(N3CC(c4ccccc4)CC3=O)n2n1 (configuration not stated) |
| 181 to 182 °C | COc1cc(CC(=O)O)ccc1SCc1sc(-c2ccc(C(F)(F)F)cc2)nc1C |
| 120 °C | O=C(Nc1ccccc1)C1=C(O)c2ccccc2N(c2ccccc2)C1 |
| 129 to 130 °C | O=S(=O)(Cl)c1ccc2oc(Br)c(CBr)c2c1 |
| 128 °C | N#CC1(N)CCC2Cc3ccccc3CC2C1 (configuration not stated) |
| 103 to 122 °C | CC1(C)c2cc(C#N)ccc2OC1O (configuration not stated) |
| 87 to 90 °C | Cc1ccc(S(=O)(=O)N2CCC[C@H]2C(=O)N[C@@H](Cc2ccc(OCCCN(C)Cc3ccccc3)cc2)C(=O)O)cc1 |
| 36 to 37 °C | C=C(Cl)COc1cc(C)nc(NCCCCCC)n1 |

The next lines start with the compound.

| SMILES | melting point |
| --- | --- |
| CCOC(=O)c1cn[nH]c1C(=O)CC(C)C | 105 to 107 °C |
| Cc1c(C2CCN(Cc3ccc(Cl)cc3)CC2)n[nH]c1-c1ccccc1 | 192 to 193 °C |
| O=c1c2ccc(O)cc2oc2c(O)c(O)ccc12 | > 300 °C |
| CC(C)n1c(=O)nc(-c2cc3c(cc2Cl)OCO3)c2cc3c(cc21)OCO3 | 147 to 150 °C |
| CCc1nc2c(C)cc(C)nc2n1Cc1ccc(C(=O)c2ccccc2)cc1 | 98 °C |
| COC(CNc1nc(C)nc2cccc(C)c12)OC | 48 to 49 °C |
| Cc1nc[nH]c1CSCCNC(=N)NS(=O)(=O)c1ccccc1 | 149 to 150 °C |
| Cc1cc(C)cc(Sc2cc(=O)[nH]c(C)c2CO)c1 | 268 to 270 °C |
| COc1cc(C)c(NC(=O)OC(C)(C)C)c(C)c1C | 104 to 106 °C |
| N#CCc1cc(F)c(OCc2ccccc2)c(OCc2ccccc2)c1 | 120 to 121 °C |
| CC1=NC(NC(=O)Nc2cccc(C)c2)C(=O)N(CC(=O)NC(C)(C)C)c2c(C)cccc21 (configuration not stated) | 243 to 244 °C |
| N#Cc1cc2cc(F)c(F)cc2o1 | 103 °C |
| COC(=O)CC[C@H](NC(=O)CCCCCCC1CNc2nc(NC(=O)C(C)(C)C)nc(O)c2C1)C(=O)OC (some centres not stated) | 152 to 160 °C |
| COCc1nc2c(N)nc3cc(CCC(N)=O)ccc3c2n1CC(C)(C)O | 228 to 230 °C |
| COC(=O)[C@@H]1C[C@H](C(=O)OC(C)(C)C)N(C(=O)CNC(=O)Nc2cccc(C)c2)[C@@H]1c1ccccc1 (racemic) | 130 °C |
| Cc1ccc(S(=O)(=O)N2CCCC2c2ccco2)cc1 (racemic) | 58 °C |
| CC1CCCC(C(=O)c2[nH]c3cc(Cl)ccc3c2N)C1 (configuration not stated) | 140 to 142 °C |
| CNc1c(C)cc(N)c([N+](=O)[O-])c1C | 57 °C |
| CC(C)Oc1cc(COc2cc(CCC(=O)O)n(-c3ccccc3)n2)cc(COc2ccc(Cl)cc2Cl)c1 | 108 to 110 °C |

| SMILES | melting point |
| --- | --- |
| CS(=O)(=O)Nc1cccc(-c2ccc(S(=O)(=O)n3ccc(C=CC(=O)NO)c3)cc2)c1 | 137 to 148 °C |
| Brc1ccccc1-c1c(Br)cccc1Br | 95 to 97 °C |
| COCc1cn(-c2cccc(C(F)(F)F)c2)nc(C(C)=O)c1=O | 141 to 143 °C |
| COC=C(C(=O)OC)c1ccccc1CON=C(C)c1noc2ccccc12 | 97 to 98 °C |
| COC(=O)C(C)c1ccc2cc(OC(=O)COCc3ccccc3)ccc2c1 (configuration not stated) | 58 to 60 °C |
| CNC(=S)C1(c2cccnc2)CCCCC1=CCOc1ccc([N+](=O)[O-])cc1 (configuration not stated) | 201 to 202 °C |
| Cc1nc2cnccc2n1-c1ccc(C2=Cc3nccn3-c3cc(Cl)c(Cl)cc3N2C)cc1 | 268 to 270 °C |
| COc1ccccc1NC(=O)c1ccc(CN2CCOCC2)cc1 | 90 to 93.5 °C |
| COc1cc2c(cc1O)CCN(Cc1cc(F)cc(F)c1)C2 | 110 to 111 °C |
| Cc1c(-c2cc(C(C)(C)C)c(O)c(C(C)(C)C)c2)nc2n1CCS2 | 258 to 261 °C |
| O=Cc1c2ccccc2c(Cl)c2c(Cl)cccc12 | 167 to 170 °C |
| CC1(C)C=CC(=Cc2ccc(F)cc2)C1(O)Cn1ccnc1 (configuration not stated) | 172 °C |
| COc1cc(CNC(=O)c2ccc3c(c2)c(=O)n(Cc2ccccc2)c(=O)n3C)ccc1O | 183 °C |
| CCc1cn(C2CC(O)C(CNC(=O)c3ccc4ccccc4c3)O2)c(=O)[nH]c1=O (configuration not stated) | 242 to 244 °C |
| CCOC(=O)c1c(C)cc2nc(CO)n(-c3ccc(OC)c(OC)c3)c(=O)c2c1C | 181 to 182 °C |
| Clc1ccc(Oc2ccc(N3CCNCC3)nc2)cc1 | 98 to 100 °C |
| CS(=O)(=O)c1ccc(-c2sc(Nc3cc(Cl)cc(Cl)c3)nc2-c2ccc(F)cc2)cc1 | 287 to 288 °C |
| CCN(CC)CC(=O)OC1CC2(C)C(C(C)=O)CCC2C2CCC3CC(O)C(Cl)CC3(C)C12 (configuration not stated) | 182 to 187 °C |
| CC(C)(C)CNc1cc(Cl)nc(NC(C)(C)C)n1 | 110 to 111 °C |

| SMILES | melting point |
| --- | --- |
| CCn1cc(C(=O)O)c(=O)c2cc(F)c(N3CCC4CCC(C3)N4)cc21 (configuration not stated) | 147 to 150 °C |
| CCN1CCC(NC(=O)Cn2c(-c3ccc(Br)cc3)nc3cccnc32)C1 (configuration not stated) | 202 to 204 °C |
| O=c1[nH]c(N2CCN(CCCCN3CCCCC3)CC2)cc2c(Br)cccc12 | 165 to 166 °C |
| CC(Oc1ccc(Cl)cc1)(C(=O)O)C(F)(F)F (configuration not stated) | 141 to 142 °C |
| COc1cc([C@H](C)O)ccc1OCCCN1CCC(c2noc3cc(F)ccc23)CC1 | 138 to 139 °C |
| Cc1nc(N)c2ncn(Cc3cc(-c4ccc(F)cc4)no3)c2c1C | 244 to 246 °C |
| Clc1ccc(-c2cc3ccccc3nc2Cl)c(Cl)c1 | 120 to 122 °C |
| CS(=O)(=O)c1ccc(CN(C2CCOCC2)S(=O)(=O)c2ccc(Cl)cc2)cc1 | 158 to 160 °C |
| O=c1oc(-c2ccccc2Cl)cc(O)c1SCc1ccccc1 | 99 to 101 °C |
| CCOC(=O)C1Oc2cccnc2NC1=O (configuration not stated) | 160 to 162 °C |
| CN(C)c1ccc(C=Cc2ccc(S(C)(=O)=O)cc2)cc1 | 242 to 243 °C |
| CCOC(=O)c1cc(-c2ccccc2OC)[nH]c1N | 128 °C |
| O=C(O)CCCOc1ccc(OCc2ccccc2)cc1 | 125 to 126 °C |
| O=C(OCc1ccc(Cl)cc1)c1ncn2c1[C@@H]1CCCN1C(=O)c1c(Cl)cccc1-2 | 183 to 184 °C |
| COc1ccc(C2=CCN(c3ccc(Cl)c(Cl)c3)C2=O)cc1OCCN1CCCCC1 | 98 to 99 °C |
| CC1CCC(=O)N1c1cc(-c2ccnc(Nc3cccc(Cl)c3)n2)ccn1 (configuration not stated) | 162 to 164 °C |
| NCC(CC(=O)O)CC1CC1 (configuration not stated) | 172 to 173 °C |
| COc1ccc2c(n1)c(CCNC(=O)c1ccco1)c1n2CCCc2ccccc2-1 | 70 to 71 °C |

From a melting point compilation (Tetko et al.; mined from patent text by program, amines drawn as free bases though some values may be those of a salt)
